In patent publication EP3386957B1, “PROCESS FOR THE PURIFICATION OF 10-DEACETYL BACCATIN III” (RotaChrom Technológiai és Szolgálató Zártkörüen Müködö …, priority 2015, dated 2017):

Test: Selectivity of CPC solvent systems for contaminants of 10-DAB III (contaminants identified by HPLC relative retention time)
Assay type: physicochemical
Settings: CPC solvent mixture MTBE/acetone/water; Table 3
Procedure: The HPLC methods used for the analysis: • 1. Isocratic method • Column: Dr Maisch ReproSil-Pur C18-AQ (150x4.0 mm, 3 um) • Column thermostat: 35 °C • Flow rate: 0.75 ml/min • Eluent: 28% acetonitrile, 72% water, 0.1% acetic acid • Detection wavelength: 230 +/- 5 nm • Injected volume: 10 ul • 2. Gradient method • Colum: Phenomenex Kinetex C18 (100x3.0 mm, 2.6 um) • Column thermostat: 35 °C • Flow rate: 0.7 ml/min • Eluent A: water + 0.1% acetic acid Eluent B: acetonitrile Gradient program: 0 min 20% B, 5 min: 30% B, 11 min 40% B, 13 min 40% B, 14 min 20% B, 18 min 20% B • Detection wavelength: 230 +/- 5 nm • Injected volume: 5 ul
Table 3: the selectivity matrix of the individual methods according to the invention

**Q.** For `CC(=O)O[C@@]12CO[C@@H]1C[C@H](O)[C@@]1(CO)C(=O)[C@H](O)C3=C(C)[C@@H](O)C[C@@](O)([C@@H](OC(=O)c4ccccc4)[C@H]21)C3(C)C` [RRT=0.48, 19-OH-10-deacetylbaccatin III], which selectivity is on record?
**A.** The selectivity was “+++ (high selectivity)”.
